Where “and” joins values, the source holds several entries; their conditions need not be identical. Equal entries are not always repeated.
Legend:
pBR322 plasmid DNA = experiment: Agarose gel electrophoresis, DNA cleavage; format: biochemical
Experimental: Electrophoresis assays were performed in 1.5% agarose gel and 1× TBE buffer using the DNA plasmid pBR322. The plasmid (15 µM base pairs) was incubated with 10 and 50 μM concentrations of the coordination compounds for 1 h at 37 °C in presence and absence of ascorbic acid (50 μM) as reducing agent and hydrogen peroxide (500 µM) as ROS generator in a final volume of 20 μL. The DNA-cleaving compound [Cu(phen)2(H2O)](NO3)2 was used as reference. The samples were loaded into the gel with 4 μL of a loading buffer (30% glycerol, 5 mM xylene cyanol), and electrophoresis was performed in 1× TBE at 100 V for 1 h in a Bio-Rad horizontal tank. Subsequently, the gel was stained with SYBR™ Safe overnight and images were acquired with a Gel Doc EZ Imager instrument (Bio-Rad).
Distinct forms of pBR322 plasmid DNA are commonly observed by gel electrophoresis due to the conformational changes that present distinct electrophoretic mobility: (1) supercoiled DNA (Form I) that migrates faster on the gel, (2) circular nicked (Form II), obtained from a one-strand scission, has a slower migration through the gel and (3) linear form (Form III) is generated when both strands are cleaved and migrates between forms I and II [54]. The interaction of the free ligands and their copper(II) and zinc(II) coordination compounds with pBR322 was investigated in presence of H2Asc (50 μM) as reducing agent and H2O2 (500 μM) as ROS generator. Solutions of 10 and 50 µM of the coordination compounds were incubated with the DNA at 37 °C for 1 h.

[1] = Distribution coefficient LogD7.4, shake-flask 1-octanol/MOPS buffer; format: physicochemical; details: 25 °C; for LogD7.4: octanol/water (MOPS buffer 10^–2 M), 3 h
Experimental: Solutions between 100 and 10 µM of the free ligands (cenz and onz) and the coordination compounds 3–10 were prepared in a MOPS buffer pH 7.4 as the aqueous phase and in 1-octanol as the organic phase. The absorption at 320 nm and 310 nm was determined for the aqueous and organic phase respectively by electronic spectroscopy (UV–Vis). Through a linear regression (concentration vs. absorption) the molar extinction coefficient of each compound in both phases was determined (Table 3). The lipophilicity was calculated in the 1-octanol/water system from the shake flask method using Eq. 1 [39]:1 […] where, Co is the final concentration in the organic phase and Cw is the final concentration in the aqueous phase (MOPS buffer at 10^–2 M pH 7.4). Both phases were presaturated with 50 µM solutions of the free ligands or 500 µM of each coordination compound and their UV spectrum was recorded. Both phases were combined and kept stirring for 3 h at 25 °C and in the absence of light. Subsequently, the mixture was centrifuged at 400g and the concentration in both phases was determined by UV–Vis spectroscopy using the Beer-Lambert law. The assays were performed in triplicate.
The T gondii parasite is an apicomplex organism; it requires a host cell to live, so it is important that the drugs used against the parasite have easy access to the cell. The lipophilicity of a compound is an important physicochemical property to determine its ability to permeate the biological membrane through passive diffusion; which usually is measured from the distribution coefficient logD7.4 = log(Co/Cw), in n-octanol/water. The shake-flask method was used to determine the LogD7.4 values from the molar extinction coefficients of the coordination compounds and the ligands in the two solvents (Table 3).

ct-DNA [2] = experiment: Competitive displacement of ethidium bromide from DNA (fluorescence); format: binding, calf; details: EB 75 µM, [DNA]b = 30 µM, compound 0-50 µM, 1 h
Experimental: (§1) For the UV–Vis, fluorescence and circular dichroism assays the concentration of ct-DNA was determined on a Varian Cary 100 Scan spectrophotometer from the absorption at 260 nm and the corresponding molar absorptivity of 6600 M^−1 cm^−1 (nucleobase concentration). The stock solutions of the coordination compounds and the free ligands were prepared in cacodylate/NaCl buffer (1 mM cacodylic acid and 20 mM sodium chloride) at pH 7.25. The final samples contained a DMSO concentration of 0.2%.
(§2) Emission intensity of the dyes DNA-intercalator ethidium bromide, EB (λexc = 514 nm) and the minor-groove binder Hoechst 33,258 (λexc = 350 nm) was measured on iHR320 HORIBA JOBIN YVON spectrofluorometer. The samples contained 15 µM (in base pairs) of ct-DNA and 75 µM of EB […] in cacodylate/NaCl buffer. The respective dye was incubated for 30 min with ct-DNA to allow its binding to the biomolecule. Subsequently, increasing amounts of coordination compounds (0–50 µM) were added up to a final volume of 2 mL, and the samples were incubated for 1 h at 37 °C. The fluorescence spectra of all samples were recorded at room temperature. The affinity of the compounds for ct-DNA compared to EB was evaluated through the Stern–Volmer quenching constant Ksv, from Eq. 3:3 I0/I=1+Ksvcompound where I0 and I are the emission intensities in absence and the presence of the compound, respectively.
With the aim to corroborate the binding mode of the coordination compounds with DNA competitive displacement assays were carried out by florescence spectroscopy. The fluorescence of ethidium bromide (EB) increases when it intercalates between DNA base pairs, forming an EB-DNA adduct. Competitive binding assays will lead to a decrease of the fluorescence intensity (λexc = 514 nm; λem = 610 nm) if the interacting molecule is capable of displacing EB from the DNA helix. Solutions containing constant concentrations of DNA (30 µM) and EB (75 µM) were incubated for 30 min. Then the coordination compounds to be tested were added in a concentration in the range of 0–50 µM (corresponding to [complex]/[DNA] ratios between = 0 and 3.3), and fluorescence spectra were recorded after 1 h of incubation.

ct-DNA [3] = experiment: Competitive displacement of Hoechst 33258 from DNA (fluorescence); format: binding, calf; details: Hoechst 33258 1.9 µM, [DNA]b = 30 µM, compound 0-50 µM, 1 h
Experimental: as §1, §2
Competitive binding assays were carried out with Hoechst 33,258. This dye binds to B-DNA, especially those with an AT-rich sequence giving a fluorescent signal at 458 nm when excited at 350 nm. As for to the EB assays, DNA (30 µM) was incubated for 30 min with Hoechst 33,258 (1.9 µM) and increasing amounts of the coordination compounds were subsequently added. In all cases, fluorescence quenching was observed (Fig. 9). As previously, the Ksv constants were determined (Fig. 9c and Table 4). The copper(II) compounds show Ksv values in the […] range (Table 4), indicating a groove binding behavior. For the zinc(II) compounds, the Ksv values are two orders of magnitude lower indicating weaker interactions, must likely of electrostatic nature.

ct-DNA [4] = experiment: Circular dichroism of ct-DNA; format: binding, calf; details: [DNA]b = 50 µM, [complex]/[DNA] 0-2, 1 h 37 °C
Experimental: as §1
Circular dichroism (CD) spectra were recorded using a JASCO-815 spectropolarimeter, equipped with xenon-arc lamp of 450 W. The sample compartment was air-purged with N2 before use. For the measurements, a quartz cuvette with an optical path of 5 mm was used. A solution of 25 µM (in base pairs) of ct-DNA in cacodylate/NaCl buffer was incubated for 1 h at 37 °C with increasing amounts of coordination compounds (0–50 µM). The CD spectra were recorded at room temperature.
The interaction of small molecules with DNA can modify these CD signals depending on the type of binding. Intercalative interactions increase the intensity of the signals, as the result of an increase of the stability of the B conformation, whereas groove binding or covalent interactions tend to decrease the intensity of these signals, which are moreover displaced. The CD spectra for both ligands and their copper(II) and zinc(II) complexes were obtained at constant concentration of ct-DNA, increasing the complex concentration up to two equivalents ([complex]/[DNA] ratios of 0, 0.2, 0.4, 1, 2) with respect to the nucleobases concentration ([DNA]b = 50 µM).

[5] = test system: RH tachyzoites of Toxoplasma gondii; experiment: Viability of extracellular tachyzoites, Sytox Green exclusion test; format: cell-based; details: 2.5-40 µM, 1 h, PBS
Experimental: RH tachyzoites of Toxoplasma gondii were extracted in PBS solution at pH 7.4 from intraperitoneal fluid of infected CD1 mice on the third day of infection and centrifuged for ten minutes at 260g. Purified parasites were used within 4 h after their isolation.
The viability of the parasites was determined from staining with Sytox Green® fluorescent dye exclusion test. Purified tachyzoites (1 × 10^6) were incubated for one hour at room temperature with PBS solutions of the coordination compounds or the free ligands at concentrations of 40, 20, 10, 5, and 2.5 µM (0.1% DMSO), in a volume final of 1 mL. After the incubation time, the samples were centrifuged for 10 min at 250g, the medium was removed and 20 µL of Sytox Green® was added after 15 min of incubation for differentiate dead parasites in a Neubauer chamber. The assays were performed in triplicate. The half maximal inhibitory concentration (IC50) was calculated by Boltzmann regression analysis and expressed as mean ± standard error of three replicates. Based on the results the tachyzoites were incubated under the same conditions with the coordination compounds [Cu(onz)2Cl2] and [Cu(onz)2Br2] at their respective IC50 values, Sytox Green® was then added, and they were observed by fluorescence microscopy. Sulfadiazine was used as positive control.
Viability assays were performed against tachyzoites of Toxoplasma gondii. The RH strain was used to evaluate the effect of different concentrations (namely, 2.5, 5, 10, 20 and 40 µM) of the coordination compounds and the free 5-nitroimidazole against the tachyzoites. The evaluation were performed in PBS buffer (pH 7.4) with Sytox Green® exclusion test, which allows differentiating dead from live tachyzoites, since the intact cell membrane of alive ones is not stained.

[6] = compound 10 (mM in the source), + H2Asc
[7] = compound 10 (mM in the source), + H2Asc + H2O2
[8] = compound 10 (mM in the source), + H2O2
[9] = compound 10 (mM in the source), no additive
[10] = compound 50 (mM in the source), + H2Asc
[11] = compound 50 (mM in the source), + H2Asc + H2O2
[12] = compound 50 (mM in the source), + H2O2
[13] = compound 50 (mM in the source), no additive

SMILES | %Damage (pBR322 plasmid DNA; [6]) | %Nicked (pBR322 plasmid DNA; [6]) | %Supercoiled (pBR322 plasmid DNA; [6]) | %Damage (pBR322 plasmid DNA; [7]) | %Damage (pBR322 plasmid DNA; [8]) | %Supercoiled (pBR322 plasmid DNA; [8]) | %Supercoiled (pBR322 plasmid DNA; [9]) | LogD7.4 [1] | Hoechst 33258 Ksv (ct-DNA [3]) | effect on CD spectrum of ct-DNA (bands at 275 and 245 nm) (ct-DNA [4]) | %Nicked (pBR322 plasmid DNA; [8]) | %Damage (pBR322 plasmid DNA; [9]) | %Damage (pBR322 plasmid DNA; [10]) | %Supercoiled (pBR322 plasmid DNA; [10]) | %Damage (pBR322 plasmid DNA; [11]) | %Damage (pBR322 plasmid DNA; [12]) | %Nicked (pBR322 plasmid DNA; [12]) | %Supercoiled (pBR322 plasmid DNA; [12]) | %Damage (pBR322 plasmid DNA; [13]) | %Supercoiled (pBR322 plasmid DNA; [13]) | other results
O.O=[N+]([O-])[O-].O=[N+]([O-])[O-].[Cu+2].c1cnc2c(c1)ccc1cccnc12.c1cnc2c(c1)ccc1cccnc12 [Cu(phen), reference compound] | 100.00% and 94.90% | 64.80% | 5.10% | 100.00% | 80.70% and 79.00% | 19.30% and 21.00% | 81.70% and 93.20% |  |  |  |  |  |  |  |  |  |  |  |  |  | 
Cc1n(CC(O)CCl)c([N+](=O)[O-])c[n+]1[Zn-2]([Br])([Br])[n+]1cc([N+](=O)[O-])n(CC(O)CCl)c1C (stereo not shown) [[Zn(onz)2Br2]] | 87.3% | 81.80% | 12.70% | 100.00% | 14.30% | 85.70% | 96.50% | 0.95 | 48000 M⁻¹ | spectra changes are minor | 4.70% | 3.5% | 98.2% | 1.80% | 100.00% | 44.80% | 29.10% | 55.20% | 11.9% | 88.10% | Ethidium bromide Ksv (ct-DNA [2]): 2600 M⁻¹; %Nicked (pBR322 plasmid DNA; [9]): 2.60%; %Nicked (pBR322 plasmid DNA; [10]): 98.80%; %Nicked (pBR322 plasmid DNA; [13]): 0.40%
Cc1ncc([N+](=O)[O-])n1CCCl.Cc1ncc([N+](=O)[O-])n1CCCl.[Cl][Zn][Cl] [[Zn(cenz)2Cl2]] | 17.10% | 2.90% | 82.90% | 90.90% | 7.30% | 92.70% | 79.20% | 0.86 | 61000 M⁻¹ | spectra changes are minor | 6.50% | 20.80% | 80.60% | 19.40% | 100.00% | 97.60% | 81.50% | 2.40% | 18.40% | 81.60% | %Nicked (pBR322 plasmid DNA; [7]): 2.10%; %Supercoiled (pBR322 plasmid DNA; [7]): 9.10%; %Nicked (pBR322 plasmid DNA; [9]): 2.50%; %Nicked (pBR322 plasmid DNA; [10]): 40.60%; %Nicked (pBR322 plasmid DNA; [13]): 2.20%
Cc1ncc([N+](=O)[O-])n1CCCl [cenz, 1-(2-chloroethyl)-2-methyl-5-nitro-1H-imidazole] |  |  |  |  |  |  |  |  |  | did not affect the DNA structure |  |  | 8.80% | 91.20% | 9.70% | 7.20% | 5.90% | 92.80% | 7.50% | 92.50% | activity against T. gondii [5]: did not show activity; logD at 3 h ([1]; 1-octanol/MOPS buffer, pH 7.4, octanol/water (MOPS buffer 10^–2 M)): 0.72; %Nicked (pBR322 plasmid DNA; [11]): 4.00%; %Supercoiled (pBR322 plasmid DNA; [11]): 90.30%; DNA cleavage (in words) (pBR322 plasmid DNA; with and without H2Asc / H2O2): did not provoke any significant DNA cleavage
